Experimental data reported in US20040009904A1, “APL immunoreactive peptides, conjugates thereof and methods of treatment for aPL antibody-mediated pathologies” (priority 1995, published 2004).
Bridge positions count the residues as written; N and C are the ends. Square brackets hold non-standard residues; d marks the D form. Ends that are not written are not given here. Peptide text beside a SMILES is read from it. NMeL = CN[C@@H](CC(C)C)C(=O)O; Phg = N[C@H](C(=O)O)c1ccccc1; Orn = NCCC[C@H](N)C(=O)O; ATU = not defined here; Aib = CC(C)(N)C(=O)O; Sar = CNCC(=O)O

Biological target: ACA-6501
Experiment: Competitive binding peptide ACA ELISA, cardiolipin/β2-GPI-coated plates
Parameters: species or system human
Conditions: Optimization of Peptide 3G3; inf = no 50% inhibition
Experimental: A variation of this assay uses microtitration plates coated with human β2-glycoprotein I/cardiolipin (β2-GPI/CL) instead of tetravalent peptide and tests the ability of monomeric peptides to block the binding of aPL antibody to the epitope(s) on β2-GPI/CL. In this assay, IgG-depleted human serum at an optimized concentration is used as a source of β2-GPI. The monomeric peptides at several concentrations are incubated with an optimized concentration of aPL antibody in a manner analogous to the assay which employs tetravalent peptide as a plate substrate. Following the incubation of aPL/peptide in (β2-GPI/CL) plates, antibody binding and the peptide concentration required for 50% inhibition is determined at half-maximal absorbance as in the tetravalent assay.
Peptide sequences for all five peptides immediately follow the table. All were tested using the competitive binding peptide ACA ELISA using CL/β2-GPI plates as described herein.
(B) Immulon I® 96-well, flat-bottom, polystyrene microtitration plates (Dynatech Laboratories, Inc., Chantilly, Va.) were coated with 30 μL/well of cardiolipin (CL, 50 μg; Sigma Chemical Co., St. Louis, Mo.) in ethanol. Two control wells received 30 μL ethanol only. After overnight evaporation at 4° C., each well was blocked with 200 μL of 5% (w/v) fish gelatin in PBS for 2 hours at RT.
During this incubation, variable amounts of each of six peptides were mixed with 22 μL ACA-6501 serum diluted with 3% fish gelatin in 1:1 TBS/PBS (final dilution of 1:400) in a final volume of 220 μL using Eppendorf microcentrifuge tubes. Specifically, in tube #1 were mixed 181.3 μL of 3% fish gelatin in TBS-PBS, 16.7 μL of peptide stock solution plus 22 μL of ACA-6501 serum diluted 40 times in 3% fish gelatin/TBS-PBS. Stock solutions ranged from 450-800 μg/mL for peptides #951 (diserine non-cyclized negative control), #952 (a lot of LJP 690), and thioethers CCTE-3G3, CHTE-3G3, HCTE-3G3 and HHTE-3G3. To tube #2 the following were added: 148 μL fish gelatin/TBS-PBS, […] of peptide stock solution, plus 22 μL of 40 times diluted ACA-6501 serum. Tube #3 contained 48 μL fish gelatin/TBS-PBS, […] of peptide stock solution, plus 22 μL of 40 times diluted ACA-6501 serum. The control tube #4 received 396 μL fish gelatin/TBS-PBS and 44 μL of 40 times diluted ACA-6501 serum (no peptide). Each of the tubes incubated for approximately 1 hour at RT.
The CL/β2-GPI microtitration plate was washed 5 times with TBS and 100 μL aliquots in duplicate from Eppendorf tubes #1, 2, 3, and 4 containing the antibody-peptide (or no peptide mixtures) were added to the wells. A volume of 100 μL from tube #4 was added to the duplicate control wells containing no cardiolipin. The microtitration plate was incubated for 1 hour at RT with agitation at 40 rpm in an orbital shaker (American Scientific, Rotator V), washed 5 times with TBS and then 100 μL of 1:1000 goat anti-human IgG alkaline phosphatase conjugate (Zymed, Cat No. 62-8422) in 0.5% (w/v) BSA-TBS was added. Following incubation for 1 hour at RT, the microtitration plate was again washed 5 times with TBS and the colorimetric enzyme detection developed by adding 100 μL of PMPP solution (7.8 g phenolphthalein monophosphate plus 69.5 g of 2-amino-2-methyl-1-propanol in 100 mL water stock solution diluted 1:26 with water). After 21 minutes, the reaction was stopped by adding 50 μL of 0.2 M Na2HPO4 (Mallinckrodt) to each well. Absorbance at 550 nm was read in a microplate reader (Bio-Tek Instruments, Model EL 311). The amount of peptide that inhibited ACA-6501 binding by 50%, the IC50, was calculated from the graph at the intersection of half-maximal absorbance with amount of peptide added.

| Molecule | with ACA 6501 150 ug/mL |
| --- | --- |
| CC(C)C[C@@H]1NC(=O)[C@H](CCCCN)NC(=O)CNC(=O)[C@H](CC(C)C)NC(=O)[C@H](C(C)C)NC(=O)CNC(=O)[C@H](c2ccccc2)NC(=O)[C@@H](N)CSSC[C@@H](C(=O)O)NC1=O [C pG G V L G K L C] (H-C[Phg]GVLGKLC-OH; disulfide 1-9) | 130 µg/mL |
| CC(C)C[C@@H]1NC(=O)[C@H](CCCCN)NC(=O)CNC(=O)[C@H](CC(C)C)NC(=O)[C@H](C(C)C)NC(=O)CNC(=O)C(C)(C)NC(=O)[C@@H](N)CSSC[C@@H](C(=O)O)NC1=O [C aiB G V L G K L C] (H-C[Aib]GVLGKLC-OH; disulfide 1-9) | 370 µg/mL |
| CC(C)C[C@@H]1NC(=O)[C@H](CCCN)NC(=O)CNC(=O)[C@H](CC(C)C)NC(=O)[C@H](C(C)C)NC(=O)CNC(=O)[C@H](CC(C)C)NC(=O)[C@@H](N)CSSC[C@@H](C(=O)O)NC1=O [C L G V L G Or L C] (H-CLGVLG[Orn]LC-OH; disulfide 1-9) | 40 µg/mL |
| CC(C)C[C@@H]1NC(=O)[C@H](CCCCN)NC(=O)CN(C)C(=O)[C@H](CC(C)C)NC(=O)[C@H](C(C)C)NC(=O)CNC(=O)[C@H](CC(C)C)NC(=O)[C@@H](N)CSSC[C@@H](C(=O)O)NC1=O [C L G V L nG K L C] (H-CLGVL[Sar]KLC-OH; disulfide 1-9) | 550 µg/mL |
| CLGVLCKLC [C L G V L C K L C] | 500 µg/mL |
| CC(C)C[C@@H]1NC(=O)[C@H](CCCCN)NC(=O)CNC(=O)[C@H](CC(C)C)NC(=O)[C@@H](C(C)C)NC(=O)CNC(=O)[C@H](CC(C)C)NC(=O)[C@@H](N)CSSC[C@@H](C(=O)O)NC1=O [C L G dV L G K L C] (H-CLG[dV]LGKLC-OH; disulfide 1-9) | 260 µg/mL |
| CC(C)C[C@@H]1NC(=O)[C@H](C(C)C)NC(=O)CNC(=O)[C@H](CC(C)C)NC(=O)[C@@H](N)CSSC[C@@H](C(=O)O)NC(=O)[C@H](CC(C)C)N(C)C(=O)[C@H](CCCCN)NC(=O)CNC1=O [C L G V L G K nL C] (H-CLGVLGK[NMeL]C-OH; disulfide 1-9) | 240 µg/mL |
| CLGGLGKLC [C L G G L G K L C] | inf. |
| CC(C)C[C@@H]1NC(=O)[C@H](C(C)C)NC(=O)CNC(=O)[C@H](CC(C)C)NC(=O)[C@@H](N)CSSC[C@@H](C(=O)O)NC(=O)CNC(=O)[C@H](CCCCN)NC(=O)CNC1=O [C L G V L G K G C] (H-CLGVLGKGC-OH; disulfide 1-9) | 500 µg/mL |
| C L G V L G K L C ATU-Y (CLGVLGKLC; C-terminal ATU-Y extension) | 300 µg/mL |
| CC(C)C[C@@H]1NC(=O)[C@@H](NC(=O)[C@@H]2CCCN2C(=O)CN)CSSC[C@@H](C(=O)N2CCC[C@H]2C(=O)NCC(=O)O)NC(=O)[C@H](CC(C)C)NC(=O)[C@H](CCCCN)NC(=O)CNC(=O)[C@H](CC(C)C)NC(=O)[C@H](C(C)C)NC(=O)CNC1=O [G P C L G V L G K L C P G] (H-GPCLGVLGKLCPG-OH; disulfide 3-11) | 180 µg/mL |
| CC(C)C[C@@H]1NC(=O)[C@H](C(C)C)NC(=O)CNC(=O)[C@H](CC(C)C)NC(=O)[C@@H](N)CSSC[C@@H](C(=O)O)NC(=O)[C@@H](CC(C)C)NC(=O)[C@@H](CCCCN)NC(=O)CNC1=O [C L G V L G dK dL C] (H-CLGVLG[dK][dL]C-OH; disulfide 1-9) | 150 µg/mL |
| Y ATU C L G V L G K L C ({Tyr-ATU}-CLGVLGKLC; cysteine pairing not given here; reading uncertain) | 170 µg/mL |
| CC(C)C[C@@H]1NC(=O)[C@@H](NC(=O)[C@@H]2CCCN2)CSSC[C@@H](C(=O)N2CCC[C@H]2C(=O)NCC(=O)O)NC(=O)[C@H](CC(C)C)NC(=O)[C@H](CCCCN)NC(=O)CNC(=O)[C@H](CC(C)C)NC(=O)[C@H](C(C)C)NC(=O)CNC1=O [P C L G V L G K L C P G] (H-PCLGVLGKLCPG-OH; disulfide 2-10) | 420 µg/mL |
| CC(C)C[C@@H]1NC(=O)[C@H](C(C)C)NC(=O)CNC(=O)[C@H](CC(C)C)NC(=O)[C@@H](N)CSSC[C@@H](C(=O)O)NC(=O)C(C)(C)NC(=O)[C@H](CCCCN)NC(=O)CNC1=O [C L G V L G K aiB C] (H-CLGVLGK[Aib]C-OH; disulfide 1-9) | >470 µg/mL |
| CC(C)C[C@@H]1NC(=O)[C@H](CCCCN)NC(=O)CNC(=O)[C@H](CC(C)C)NC(=O)[C@H](C(C)C)NC(=O)CNC(=O)[C@H](CC(C)C)NC(=O)[C@@H](N)CSSC[C@@H](C(=O)N2CCC[C@H]2C(=O)NCC(=O)O)NC1=O [C L G V L G K L C P G] (H-CLGVLGKLCPG-OH; disulfide 1-9) | 460 µg/mL |
| CC(C)C[C@@H]1NC(=O)[C@H](CCCCN)NC(=O)CNC(=O)[C@H](CC(C)C)NC(=O)[C@H](C(C)C)NC(=O)CNC(=O)[C@H](C(C)C)NC(=O)[C@@H](N)CSSC[C@@H](C(=O)O)NC1=O [C V G V L G K L C] (H-CVGVLGKLC-OH; disulfide 1-9) | 130 µg/mL |
| CC(C)C[C@@H]1NC(=O)[C@H](CCCCN)NC(=O)CNC(=O)[C@H](c2ccccc2)NC(=O)[C@H](C(C)C)NC(=O)CNC(=O)[C@H](CC(C)C)NC(=O)[C@@H](N)CSSC[C@@H](C(=O)O)NC1=O [C L G Vp G G K L C] (H-CLGV[Phg]GKLC-OH; disulfide 1-9) | 35 µg/mL |
| CC(C)C[C@@H]1NC(=O)[C@H](C(C)C)NC(=O)CNC(=O)[C@H](CC(C)C)NC(=O)[C@@H](N)CSSC[C@@H](C(=O)O)NC(=O)[C@@H]2CCCN2C(=O)[C@H](CCCCN)NC(=O)CNC1=O [C L G V L G K P C] (H-CLGVLGKPC-OH; disulfide 1-9) | 550 µg/mL |
| CC(C)C[C@@H]1NC(=O)[C@H](CCCCN)NC(=O)CNC(=O)[C@H](CC(C)C)NC(=O)[C@H](c2ccccc2)NC(=O)CNC(=O)[C@H](CC(C)C)NC(=O)[C@@H](N)CSSC[C@@H](C(=O)O)NC1=O [C L G pG L G K L C] (H-CLG[Phg]LGKLC-OH; disulfide 1-9) | 70 µg/mL |
| CC(C)C[C@@H]1NC(=O)[C@H](CCCCN)NC(=O)CNC(=O)[C@H](CC(C)C)NC(=O)[C@@H]2CCCN2C(=O)CNC(=O)[C@H](CC(C)C)NC(=O)[C@@H](N)CSSC[C@@H](C(=O)O)NC1=O [C L G P L G K L C] (H-CLGPLGKLC-OH; disulfide 1-9) | 180 µg/mL |
| CC(C)C[C@@H]1NC(=O)[C@H](C(C)C)NC(=O)CNC(=O)[C@H](CC(C)C)NC(=O)[C@@H](N)CSSC[C@@H](C(=O)O)NC(=O)[C@@H](CC(C)C)NC(=O)[C@H](CCCCN)NC(=O)CNC1=O [C L G V L G K dL C] (H-CLGVLGK[dL]C-OH; disulfide 1-9) | 140 µg/mL |
| CC(C)C[C@@H]1NC(=O)[C@H](C(C)C)NC(=O)CNC(=O)[C@H](CC(C)C)NC(=O)[C@@H](N)CSSC[C@@H](C(=O)O)NC(=O)[C@H](C)NC(=O)[C@H](CCCCN)NC(=O)CNC1=O [C L G V L G K A C] (H-CLGVLGKAC-OH; disulfide 1-9) | 360 µg/mL |
| CC(C)C[C@@H]1NC(=O)[C@H](CCCCN)NC(=O)CNC(=O)[C@H](CC(C)C)NC(=O)[C@H](C(C)C)NC(=O)CNC(=O)[C@H](C)NC(=O)[C@@H](N)CSSC[C@@H](C(=O)O)NC1=O [C A G V L G K L C] (H-CAGVLGKLC-OH; disulfide 1-9) | 200 µg/mL |
| CC(C)C[C@@H]1NC(=O)[C@H](CCCCN)NC(=O)CNC(=O)[C@@H](CC(C)C)NC(=O)[C@H](C(C)C)NC(=O)CNC(=O)[C@H](CC(C)C)NC(=O)[C@@H](N)CSSC[C@@H](C(=O)O)NC1=O [C L G V dL G K L C] (H-CLGV[dL]GKLC-OH; disulfide 1-9) | 230 µg/mL |
